Reference: US11718604B2, “4-amino-6-(1,3-benzodioxole)picolinates and their use as herbicides” (Dow AgroSciences LLC, priority 2018, dated 2023)

Columns and labels:
Type in all cases: in vivo
[1] = tested on: VIOTR: wild violet (Viola tricolor); assay: Post-emergent herbicidal test, wild violet; details: post-emergence, 336 h, 14 days after application, read-out: Visual Growth Reduction (%) 14 Days After Application VIOTR; for pest or weed control at 17.5 g/ha: 17.5 g ai/ha; for pest or weed control at 35 g/ha: 35 g ai/ha; for pest or weed control at 70 g/ha: 70 g ai/ha; for pest or weed control at 140 g/ha: 140 g ai/ha
How it was run: (§1)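 Visual injury ratings (0 = no injury, 100% = complete kill) were made 14 d after post-emergence application versus untreated plants. Treatment: track-sprayer application at 187 L/ha to plants at first/second true leaf, in aqueous acetone/DMSO with crop oil concentrate and Triton X-155, as a high rate serially halved to 1/16×.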

[2] = tested on: SETFA: giant foxtail (Setaria faberi); assay: Post-emergent herbicidal test, giant foxtail; details: post-emergence, 336 h, 14 days after application, read-out: Visual Growth Reduction (%) 14 Days After Application SETFA; for pest or weed control at 17.5 g/ha: 17.5 g ai/ha; for pest or weed control at 35 g/ha: 35 g ai/ha; for pest or weed control at 70 g/ha: 70 g ai/ha; for pest or weed control at 140 g/ha: 140 g ai/ha
How it was run: as §1

[3] = tested on: CYPES: yellow nutsedge (Cyperus esculentus); assay: Post-emergent herbicidal test, yellow nutsedge; details: post-emergence, 336 h, 14 days after application, read-out: Visual Growth Reduction (%) 14 Days After Application CYPES; for pest or weed control at 17.5 g/ha: 17.5 g ai/ha; for pest or weed control at 35 g/ha: 35 g ai/ha; for pest or weed control at 70 g/ha: 70 g ai/ha; for pest or weed control at 140 g/ha: 140 g ai/ha
How it was run: as §1

[4] = tested on: IPOHE: ivyleaf morningglory (Ipomoea hederacea); assay: Post-emergent herbicidal test, ivyleaf morningglory; details: post-emergence, 336 h, 14 days after application, read-out: Visual Growth Reduction (%) 14 Days After Application IPOHE; for pest or weed control at 17.5 g/ha: 17.5 g ai/ha; for pest or weed control at 35 g/ha: 35 g ai/ha; for pest or weed control at 70 g/ha: 70 g ai/ha; for pest or weed control at 140 g/ha: 140 g ai/ha
How it was run: as §1

[5] = tested on: ECHCG: barnyardgrass (Echinochloa crus-galli); assay: Post-emergent herbicidal test, barnyardgrass; details: post-emergence, 336 h, 14 days after application, read-out: Visual Growth Reduction (%) 14 Days After Application ECHCG; for pest or weed control at 17.5 g/ha: 17.5 g ai/ha; for pest or weed control at 35 g/ha: 35 g ai/ha; for pest or weed control at 70 g/ha: 70 g ai/ha; for pest or weed control at 140 g/ha: 140 g ai/ha
How it was run: as §1

[6] = tested on: CIRAR: Canada thistle (Cirsium arvense); assay: Post-emergent herbicidal test, Canada thistle; details: post-emergence, 336 h, 14 days after application, read-out: Visual Growth Reduction (%) 14 Days After Application CIRAR; for pest or weed control at 17.5 g/ha: 17.5 g ai/ha; for pest or weed control at 35 g/ha: 35 g ai/ha; for pest or weed control at 70 g/ha: 70 g ai/ha; for pest or weed control at 140 g/ha: 140 g ai/ha
How it was run: as §1

[7] = tested on: EPHHL: wild poinsettia (Euphorbia heterophylla); assay: Post-emergent herbicidal test, wild poinsettia; details: post-emergence, 336 h, 14 days after application, read-out: Visual Growth Reduction (%) 14 Days After Application EPHHL; for pest or weed control at 17.5 g/ha: 17.5 g ai/ha; for pest or weed control at 35 g/ha: 35 g ai/ha; for pest or weed control at 70 g/ha: 70 g ai/ha; for pest or weed control at 140 g/ha: 140 g ai/ha
How it was run: as §1

[8] = tested on: BRSNN: oilseed rape, canola (Brassica napus); assay: Post-emergent herbicidal test, oilseed rape; details: post-emergence, 336 h, 14 days after application, read-out: Visual Growth Reduction (%) 14 Days After Application BRSNN; for pest or weed control at 17.5 g/ha: 17.5 g ai/ha; for pest or weed control at 35 g/ha: 35 g ai/ha; for pest or weed control at 70 g/ha: 70 g ai/ha; for pest or weed control at 140 g/ha: 140 g ai/ha
How it was run: as §1

[9] = tested on: DIGSA: large crabgrass (Digitaria sanguinalis); assay: Post-emergent herbicidal test, large crabgrass; details: post-emergence, 336 h, 14 days after application, read-out: Visual Growth Reduction (%) 14 Days After Application DIGSA; for pest or weed control at 17.5 g/ha: 17.5 g ai/ha; for pest or weed control at 35 g/ha: 35 g ai/ha; for pest or weed control at 70 g/ha: 70 g ai/ha; for pest or weed control at 140 g/ha: 140 g ai/ha
How it was run: as §1

[10] = tested on: ABUTH: velvetleaf (Abutilon theophrasti); assay: Post-emergent herbicidal test, velvetleaf; details: post-emergence, 336 h, 14 days after application, read-out: Visual Growth Reduction (%) 14 Days After Application ABUTH; for pest or weed control at 17.5 g/ha: 17.5 g ai/ha; for pest or weed control at 35 g/ha: 35 g ai/ha; for pest or weed control at 70 g/ha: 70 g ai/ha; for pest or weed control at 140 g/ha: 140 g ai/ha
How it was run: as §1

[11] = tested on: SORVU: shattercane (Sorghum bicolor); assay: Post-emergent herbicidal test, shattercane; details: post-emergence, 336 h, 14 days after application, read-out: Visual Growth Reduction (%) 14 Days After Application SORVU; for pest or weed control at 17.5 g/ha: 17.5 g ai/ha; for pest or weed control at 35 g/ha: 35 g ai/ha; for pest or weed control at 70 g/ha: 70 g ai/ha; for pest or weed control at 140 g/ha: 140 g ai/ha
How it was run: as §1

COC(=O)c1nc(-c2cccc3c2OCO3)c(F)c(N)c1Cl [Compound 2]
pest or weed control at 17.5 g/ha [1]: 0% | pest or weed control at 35 g/ha [1]: 0% | pest or weed control at 70 g/ha [1]: 0% | pest or weed control at 140 g/ha [1]: 10% | pest or weed control at 17.5 g/ha [2]: 0% | pest or weed control at 35 g/ha [2]: 0% | pest or weed control at 70 g/ha [2]: 0% | pest or weed control at 140 g/ha [2]: 0% | pest or weed control at 17.5 g/ha [3]: 0% | pest or weed control at 35 g/ha [3]: 0% | pest or weed control at 70 g/ha [3]: 10% | pest or weed control at 140 g/ha [3]: 30% | pest or weed control at 17.5 g/ha [4]: 0% | pest or weed control at 35 g/ha [4]: 0% | pest or weed control at 70 g/ha [4]: 10% | pest or weed control at 140 g/ha [4]: 25% | pest or weed control at 17.5 g/ha [5]: 0% | pest or weed control at 35 g/ha [5]: 0% | pest or weed control at 70 g/ha [5]: 0% | pest or weed control at 140 g/ha [5]: 0% | pest or weed control at 17.5 g/ha [6]: 60% | pest or weed control at 35 g/ha [6]: 100% | pest or weed control at 70 g/ha [6]: 98% | pest or weed control at 140 g/ha [6]: 98% | pest or weed control at 17.5 g/ha [7]: 0% | pest or weed control at 35 g/ha [7]: 0% | pest or weed control at 70 g/ha [7]: 0% | pest or weed control at 140 g/ha [7]: 0% | pest or weed control at 17.5 g/ha [8]: 30% | pest or weed control at 35 g/ha [8]: 40% | pest or weed control at 70 g/ha [8]: 85% | pest or weed control at 140 g/ha [8]: 90% | pest or weed control at 17.5 g/ha [9]: 0% | pest or weed control at 35 g/ha [9]: 0% | pest or weed control at 70 g/ha [9]: 0% | pest or weed control at 140 g/ha [9]: 0% | pest or weed control at 17.5 g/ha [10]: 50% | pest or weed control at 35 g/ha [10]: 60% | pest or weed control at 70 g/ha [10]: 75% | pest or weed control at 140 g/ha [10]: 95% | pest or weed control at 17.5 g/ha [11]: 0% | pest or weed control at 35 g/ha [11]: 0% | pest or weed control at 70 g/ha [11]: 0% | pest or weed control at 140 g/ha [11]: 0%

Nc1c(F)c(-c2ccc(F)c3c2OC(F)(F)O3)nc(C(=O)O)c1Cl [Compound 8]
pest or weed control at 17.5 g/ha [1]: 0% | pest or weed control at 35 g/ha [1]: 5% | pest or weed control at 70 g/ha [1]: 15% | pest or weed control at 140 g/ha [1]: 35% | pest or weed control at 17.5 g/ha [2]: 0% | pest or weed control at 35 g/ha [2]: 0% | pest or weed control at 70 g/ha [2]: 0% | pest or weed control at 140 g/ha [2]: 0% | pest or weed control at 17.5 g/ha [3]: 0% | pest or weed control at 35 g/ha [3]: 0% | pest or weed control at 70 g/ha [3]: 0% | pest or weed control at 140 g/ha [3]: 10% | pest or weed control at 17.5 g/ha [4]: 0% | pest or weed control at 35 g/ha [4]: 0% | pest or weed control at 70 g/ha [4]: 10% | pest or weed control at 140 g/ha [4]: 10% | pest or weed control at 17.5 g/ha [5]: 0% | pest or weed control at 35 g/ha [5]: 0% | pest or weed control at 70 g/ha [5]: 0% | pest or weed control at 140 g/ha [5]: 0% | pest or weed control at 17.5 g/ha [6]: 20% | pest or weed control at 35 g/ha [6]: 75% | pest or weed control at 70 g/ha [6]: 80% | pest or weed control at 140 g/ha [6]: 80% | pest or weed control at 17.5 g/ha [7]: 0% | pest or weed control at 35 g/ha [7]: 0% | pest or weed control at 70 g/ha [7]: 0% | pest or weed control at 140 g/ha [7]: 0% | pest or weed control at 17.5 g/ha [8]: 70% | pest or weed control at 35 g/ha [8]: 75% | pest or weed control at 70 g/ha [8]: 85% | pest or weed control at 140 g/ha [8]: 97% | pest or weed control at 17.5 g/ha [9]: 0% | pest or weed control at 35 g/ha [9]: 0% | pest or weed control at 70 g/ha [9]: 0% | pest or weed control at 140 g/ha [9]: 0% | pest or weed control at 17.5 g/ha [10]: 30% | pest or weed control at 35 g/ha [10]: 40% | pest or weed control at 70 g/ha [10]: 60% | pest or weed control at 140 g/ha [10]: 75% | pest or weed control at 17.5 g/ha [11]: 0% | pest or weed control at 35 g/ha [11]: 0% | pest or weed control at 70 g/ha [11]: 0% | pest or weed control at 140 g/ha [11]: 0%
